Data on five compounds can be found in paper PMC3731163 (MedChemComm, 2013).

Like-named read-outs stand apart in the source and are kept apart here.

Assay [1] concerns H37Rv Mtb. Description: Whole cell antitubercular activity. Type of assay: cell-based, Mycobacterium tuberculosis.
In assay [2] the target is T1, Mtb Dxr (Mycobacterium tuberculosis, UniProt P9WNS1). The following applies: see also Supplementary Figure 1; cited from earlier work.
The subject of assay [3] is H37Rv Mtb. The following applies: cited from earlier work.
Assay [4] has as its target T1, Mtb Dxr. Kind of assay: Classical competition experiments. Format: biochemical. Conditions: double reciprocal plots.

T1 sequence (P9WNS1 whole entry): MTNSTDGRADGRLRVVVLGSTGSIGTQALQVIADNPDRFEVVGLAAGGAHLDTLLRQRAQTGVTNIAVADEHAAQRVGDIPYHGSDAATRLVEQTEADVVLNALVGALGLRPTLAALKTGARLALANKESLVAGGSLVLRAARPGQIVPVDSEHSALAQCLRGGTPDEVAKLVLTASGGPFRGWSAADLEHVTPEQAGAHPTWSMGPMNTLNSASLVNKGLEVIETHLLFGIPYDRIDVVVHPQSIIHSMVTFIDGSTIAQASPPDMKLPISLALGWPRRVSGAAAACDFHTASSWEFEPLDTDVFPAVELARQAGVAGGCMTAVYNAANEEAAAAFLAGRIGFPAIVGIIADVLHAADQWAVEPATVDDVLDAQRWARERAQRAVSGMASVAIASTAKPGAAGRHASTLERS

Consider `CCOP(=O)(CCCN(O)C(=O)CCCc1ccccc1)OCC` [18b], for which the figures for the “inhibition of Mtb growth (in words)” value in assay [1] and in assay [1] (listed as diethyl ester of 8) were “display measurable antitubercular activity” and “inhibits Mtb growth”, respectively.
On to `O=CN(O)CCCP(=O)(O)O` [Compound 1, Fosmidomycin], for which, in assay [1], the “inhibition of Mtb growth (in words)” value was “do not inhibit Mtb”. Also, the “mode of inhibition with respect to DXP” value in assay [2] is recorded as “competitive”. The “activity against Mtb (in words)” value in assay [3] is “inactive”.
In the case of `CC(=O)N(O)CCCP(=O)([O-])O.[Na+]` [Compound 2, FR900098], the “inhibition of Mtb growth (in words)” value in assay [1] is listed as “do not inhibit Mtb”. In assay [2], the “mode of inhibition relative to NADPH” value is “uncompetitive” and the “mode of inhibition with respect to DXP” value is listed as “competitive”.
Consider `O=C(CCCc1ccccc1)N(O)CCCP(=O)([O-])O.[Na+]` [Compound 8], for which, in assay [4], the “mode of inhibition with respect to DXP” value is “competitive” and the “mode of inhibition with respect to NADPH” value is “noncompetitive”. Besides, the “inhibition of Mtb growth (in words)” value in assay [1] is reported as “do not inhibit Mtb”.
Consider `CCOP(=O)(CCCN(O)C=O)OCC` [Diethyl-1], for which the “inhibition of Mtb growth (in words)” value in assay [1] was “display measurable antitubercular activity”.
